{
  "source": "patent US11406660B2",
  "about": "“Treatment of bone marrow edema (OEDEMA) with polysulfated polysaccharides” (PARADIGM HEALTH SCIENCES PTY LTD, priority 2011, dated 2022)",
  "key": {"[1]": {"test_system": "subchondral BME in the femoral subchondral bone", "test": "Case report Example 1: subject, knee injury with subchondral BME, course of PPS injections", "assay_type": "in vivo, human", "conditions": "for BME on T1 weighted MRI: subject, one week after completing 10 x 100 mg/ml IM injections, FIG. 1B vs FIG. 1A", "experimental": "FIG. 1A is an MRI (T1 weighted scans) of subject […] showing the presence of bone marrow edema in the subchondral bone of the in left femoral condyle. Edema is evidenced by the reduced intensity of the signals in the semi-circular region beneath the articular cartilage. The MRI was taken 5 days following initial joint injury; and\nFIG. 1B is an MRI (T1 weighted scans) of subject […] taken one week after completing a course of 10×100 mg/ml IM injection of pentosan polysulfate. […] Magnification of MRI image shown is slightly higher than for FIG. 1A.\nA subject ([…]) in good general health while jogging on the footpath stumbled and fell laterally striking the pavement with their right knee. Next day the knee was swollen and extremely painful and when examined by a medical practitioner was diagnosed as avulsion of the collateral ligament attachment to tibial bone. […] Five days after sustaining the injury surgical repair was undertaken to re-attach the free ligament bone insertion to the tibia. However the knee pain persisted thereafter and was not relieved by use of analgesics or NSAIDs. Five weeks after the surgery a course of PPS, 100 mg/ml injections administered intramuscularly twice weekly for 5 weeks was initiated (total of 10 injections). After receiving the 6th injection, the pain and joint swelling had disappeared and one week after completion of the PPS course of injections the joint was again reviewed by T1 weighted MM."}, "[2]": {"conditions": "cited from earlier work"}, "[3]": {"test_system": "sub-chondral bone contusion (BME)", "test": "Case report Example 3: subject one, knee pain after sub-chondral bone contusion (BME), daily intramuscular PPS", "assay_type": "in vivo, human", "conditions": "for knee pain: 100 mg intramuscular daily", "experimental": "For example, in one instance, the pain suffered by a patient was so debilitating that the patient received a total of 7 intramuscular injections (7×1 ml ampoules PPS [7×100 mg]) over a period of 7 day until the pain resolved. This equated to just over 1.0 mg/kg PPS daily.\nA healthy person one with genu varum of approximately 5 degrees slipped on a step at an airport terminal while rushing to catch an international flight such that their left foot made an unexpected high impact with the ground. After arriving at their destination late that evening, the person retired for the night but was woken in the early hours of the morning with intense throbbing pain originating from the medial compartment of their left knee joint."}, "[4]": {"test_system": "OA", "conditions": "cited from earlier work"}},
  "data": [
    {"substance": "pentosan polysulfate [PPS]", "values": [
      {"measurement": "pain and joint swelling", "setting": "[1]; subject three, 100 mg/ml intramuscularly twice weekly for 5 weeks, after the 6th injection", "value": "disappeared"},
      {"measurement": "BME on T1 weighted MRI", "setting": "[1]", "value": "completely resolved"},
      {"measurement": "BME on T1 weighted MRI", "setting": "[1]; listed as pentosan polysulfate", "value": "absence of bone marrow edema"},
      {"measurement": "anticoagulant activity compared with heparin", "setting": "[2]", "value": "weaker anticoagulant than heparin"},
      {"measurement": "pain", "setting": "[3]; a patient, 7 intramuscular injections (7 x 100 mg) over 7 days, just over 1.0 mg/kg daily", "value": "resolved"},
      {"measurement": "knee pain", "setting": "[3]; subject one, after the 7th injection", "value": "completely resolved"},
      {"measurement": "knee pain", "setting": "[3]; subject one, following the 5th injection", "value": "substantially subsided"},
      {"measurement": "recurrence of debilitating joint pain", "setting": "[3]; subject one, subsequent months following the PPS course of therapy", "value": "did not re-occur"},
      {"measurement": "symptoms in patients with OA", "setting": "[4]", "value": "symptomatic relief"}
    ]}
  ]
}
